Data as given in ChEMBL document CHEMBL1764955, “The synthesis and evaluation of indolylureas as PKCα inhibitors” (Bioorg Med Chem, 2011).

Legend:
[1] = target: cAMP-dependent protein kinase catalytic subunit beta (Homo sapiens, UniProt P22694); assay: Inhibition of PKA activity using kemptide as a substrate in presence of 50 uM ATP by mass spectrometry
[2] = target: Protein kinase C alpha type (Homo sapiens, UniProt P17252); assay: Inhibition of human PKCalpha activity using neurogranin as a substrate in presence of 50 uM ATP by mass spectrometry

Row | SMILES | IC50 [1] [µM] | IC50 [2] [µM]
1 | CN(C)CCCn1cc(NC(=O)Nc2nccc(-c3ccccc3)n2)c2ccccc21 | 23.6 | 0.095
2 | CCN(CC)CCCn1cc(NC(=O)Nc2cccc(-c3ccccc3)n2)c2ccccc21 | – | 2.68
3 | CCN(CC)CCCn1cc(NC(=O)Nc2ccnc(-c3ccccc3)n2)c2ccccc21 | – | 4.81
4 | CCN(CC)CCCn1cc(NC(=O)Nc2cncc(-c3ccccc3)n2)c2ccccc21 | – | 8.07
